Results taken from patent US20260256792A1, “TREATMENT OF CHRONIC SPONTANEOUS URTICARIA BY ADMINISTERING (R)-2-[3-[4-AMINO-3-(2-FLUORO-4-PHENOXY-PHENYL)PYRAZOLO[3,4-D]PYRIMIDIN-1-YL]PIPERIDINE-1-CARBONYL]-4-METHYL-4-[4-(OXETAN-3-YL)PIPERAZIN-1-YL]PENT-2-ENENITRILE” (priority 2023, published 2026).

System: moderate-to-severe chronic spontaneous urticaria (CSU)
Test: Phase 2 CSU study: hives severity score over 7 days (HSS7)
Assay type: in vivo, human
Design: key to HSS7 Change from baseline, Median / HSS7, Median / HSS7, Max / HSS7 Change from baseline, Q1 / HSS7 Change from baseline, Q3 / HSS7 Change from baseline, Max: 7-day sum of daily hive scores, each 0 = none to 3 = >50 hives
From the text: The study comprises a 12 week, randomized, double-blind, placebo-controlled, multi-center, dose-ranging efficacy and safety phase, followed by a 40 week open label extension (OLE) phase (see FIG. 1).
The study consists of three phases and an optional OLE phase.
The UAS is a validated PRO measure. The daily UAS is the sum of the daily Hive Severity Score (HSS, ranging from 0=None to 3=more than 50 hives) and the daily Itch Severity Score (ISS, ranging from 0=None to 3=intense), the 2 key urticaria signs and symptoms which are wheals and itch. The daily UAS scores range from 0 to 6 point/day. Daily UAS scores are summed over 7-day period to create the UAS7, ranging from 0 to 42, and are composed of the HSS7 and ISS7 components. […] Patients were to complete the UAS using the e-diary. The e-diary was to be used once daily on the same time of each day recording of participant's answers to the urticaria activity score over 7 days (UAS7) questionnaire. For participants who entered the OLE phase, their answers to the UAS7 questionnaire were also to be collected from Week 20 to Week24 and from Week 48 to Week 52.
The following secondary endpoints were to be analyzed using the same approach as for the primary endpoint: • Change from baseline in UAS7 at Week 4 • Change from baseline in UAS7 at Week 12 (for US and US reference countries) • Change from baseline in ISS7 at Week 12 (except US and US reference countries) • Change from baseline in HSS7 at Week 12

[1] = 400 mg BID, Week 11, ITT Population
[2] = 400 mg BID, Week 12, ITT population
[3] = 400 mg BID, Week 12, Omalizumab-Naïve Population
[4] = 400 mg QPM, Omalizumab-Naïve Population, last block under Week 12, double-blind period, WOCF imputation
[5] = 400 mg QPM, Week 1, ITT Population
[6] = 400 mg QPM, Week 1, Omalizumab-Naïve Population
[7] = 400 mg QPM, Week 2, ITT Population
[8] = 400 mg QPM, Week 2, Omalizumab-Naïve Population
[9] = 400 mg QPM, Week 3, ITT Population
[10] = 400 mg QPM, Week 3, Omalizumab-Naïve Population
[11] = 400 mg QPM, Week 4, ITT population
[12] = 400 mg QPM, Week 4, Omalizumab-Naïve Population
[13] = 400 mg QPM, Week 5, ITT Population
[14] = 400 mg QPM, Week 5, Omalizumab-Naïve Population
[15] = 400 mg QPM, Week 6, ITT Population
[16] = 400 mg QPM, Week 6, Omalizumab-Naïve Population
[17] = 400 mg QPM, Week 7, ITT Population
[18] = 400 mg QPM, Week 7, Omalizumab-Naïve Population
[19] = 400 mg QPM, Week 8, ITT population
[20] = 400 mg QPM, Week 8, Omalizumab-Naïve Population
[21] = 400 mg QPM, Week 9, ITT Population

CC(C)(C=C(C#N)C(=O)N1CCC[C@@H](n2nc(-c3ccc(Oc4ccccc4)cc3F)c3c(N)ncnc32)C1)N1CCN(C2COC2)CC1 [rilzabrutinib, (R)-2-[3-[4-amino-3-(2-fluoro-4-phenoxy-phenyl)pyrazolo[3,4-d]pyrimidin-1-yl]piperidine-1-carbonyl]-4-methyl-4-[4-(oxetan-3-yl)piperazin-1-yl]pent-2-enenitrile]
HSS7 % Change from baseline LS Mean (SE) [1]: −49.14 (7.06) % | HSS7 Change difference for rilzabrutinib vs.placebo LS Mean (95% CI) [1]: −2.46 (−5.05, 0.13) | HSS7 Change from baseline LS Mean (SE) [1]: −7.01 (0.99) | HSS7 Postbaseline Mean (SD) [1]: 6.79 (7.06) | HSS7 Postbaseline Mean (SD) (400 mg BID, Week 11, Omalizumab-Naïve Population): 7.13 (7.07) | HSS7 Postbaseline Mean (SD) (400 mg BID, Week 11, Omalizumab-Naïve Population with Outlier Removed from Analysis): 7.13 (7.07) | HSS7 % Change difference for rilzabrutinib vs.placebo LS Mean (95% CI) [2]: −19.13 % | HSS7 % Change from baseline LS Mean (SE) [2]: −46.86 (7.34) % | HSS7 Change difference for rilzabrutinib vs.placebo LS Mean (95% CI) [2]: −1.89 (−4.58, 0.80) | HSS7 Change from baseline LS Mean (SE) [2]: −6.78 (1.02) | HSS7 Postbaseline Mean (SD) [2]: 7.08 (7.32) | HSS7 Change difference for rilzabrutinib vs.placebo LS Mean (95% CI) [3]: −2.12 (−4.97, 0.73) | HSS7 Change from baseline LS Mean (SE) [3]: −6.52 (1.07) | HSS7 Postbaseline Mean (SD) [3]: 7.52 (7.21) | HSS7 Postbaseline Mean (SD) (400 mg BID, Week 12, Omalizumab-Naïve Population with Outlier Removed from Analysis): 7.52 (7.21) | HSS7, Max [4]: 21.0 | HSS7, Min [4]: 0.0 | HSS7 Change from baseline, Max [4]: 1.5 | HSS7 Change from baseline, Mean (SD) [4]: −9.87 (8.34) | HSS7 Change from baseline, Median [4]: −12.00 | HSS7 Change from baseline, Min [4]: −19.6 | HSS7 Change from baseline, Q1 [4]: −18.00 | HSS7 Change from baseline, Q3 [4]: 0.00 | HSS7 Percent change from baseline, Max [4]: 9.4% | HSS7 Percent change from baseline, Mean (SD) [4]: −64.85 (48.75) percent | HSS7 Percent change from baseline, Median [4]: −93.33% | HSS7 Percent change from baseline, Q1 [4]: −100.00% | HSS7 Percent change from baseline, Q3 [4]: 0.00% | HSS7 % Change difference for rilzabrutinib vs.placebo LS Mean (95% CI) [5]: −16.53 % | HSS7 % Change from baseline LS Mean (SE) [5]: −25.22 (5.61) % | HSS7 Change difference for rilzabrutinib vs.placebo LS Mean (95% CI) [5]: −2.14 (−4.59, 0.31) | HSS7 Change from baseline LS Mean (SE) [5]: −3.98 (0.76) | HSS7 Postbaseline Mean (SD) [5]: 10.76 (4.83) | HSS7 % Change difference for rilzabrutinib vs.placebo LS Mean (95% CI) [6]: −17.05 % | HSS7 % Change from baseline LS Mean (SE) [6]: −24.49 (5.76) % | HSS7 Change difference for rilzabrutinib vs.placebo LS Mean (95% CI) [6]: −2.16 (−4.69, 0.37) | HSS7 Change from baseline LS Mean (SE) [6]: −3.79 (0.77) | HSS7 Postbaseline Mean (SD) [6]: 10.73 (4.90) | HSS7 Postbaseline Mean (SD) (400 mg QPM, Week 1, Omalizumab-Naïve Population with Outlier Removed from Analysis): 10.73 (4.90) | HSS7 % Change difference for rilzabrutinib vs.placebo LS Mean (95% CI) [7]: −7.67 (−23.03, 7.68) % | HSS7 % Change from baseline LS Mean (SE) [7]: −24.23 (5.75) % | HSS7 Change difference for rilzabrutinib vs.placebo LS Mean (95% CI) [7]: −0.95 (−3.07, 1.17) | HSS7 Change from baseline LS Mean (SE) [7]: −3.87 (0.80) | HSS7 Postbaseline Mean (SD) [7]: 10.96 (4.91) | HSS7 % Change difference for rilzabrutinib vs.placebo LS Mean (95% CI) [8]: −8.35 (−24.24, 7.54) % | HSS7 % Change from baseline LS Mean (SE) [8]: −23.62 (5.84) % | HSS7 Postbaseline Mean (SD) [8]: 10.90 (4.97) | HSS7 Postbaseline Mean (SD) (400 mg QPM, Week 2, Omalizumab-Naïve Population with Outlier Removed from Analysis): 10.90 (4.97) | HSS7 % Change difference for rilzabrutinib vs.placebo LS Mean (95% CI) [9]: −9.55 (−25.43, 6.33) % | HSS7 % Change from baseline LS Mean (SE) [9]: −28.70 (5.96) % | HSS7 Change difference for rilzabrutinib vs.placebo LS Mean (95% CI) [9]: −0.94 (−3.15, 1.28) | HSS7 Change from baseline LS Mean (SE) [9]: −4.44 (0.83) | HSS7 Postbaseline Mean (SD) [9]: 10.40 (4.90) | HSS7 % Change difference for rilzabrutinib vs.placebo LS Mean (95% CI) [10]: −10.40 % | HSS7 % Change from baseline LS Mean (SE) [10]: −28.10 (6.12) % | HSS7 Postbaseline Mean (SD) [10]: 10.41 (4.97) | HSS7 Postbaseline Mean (SD) (400 mg QPM, Week 3, Omalizumab-Naïve Population with Outlier Removed from Analysis): 10.41 (4.97) | HSS7 % Change difference for rilzabrutinib vs.placebo LS Mean (95% CI) [11]: −7.88 (−24.05, 8.29) % | HSS7 % Change from baseline LS Mean (SE) [11]: −26.58 (6.02) % | HSS7 Change difference for rilzabrutinib vs.placebo LS Mean (95% CI) [11]: −0.78 (−3.03, 1.46) | HSS7 Change from baseline LS Mean (SE) [11]: −4.23 (0.84) | HSS7 % Change difference for rilzabrutinib vs.placebo LS Mean (95% CI) [12]: −10.20 % | HSS7 % Change from baseline LS Mean (SE) [12]: −26.07 (6.19) % | HSS7 % Change difference for rilzabrutinib vs.placebo LS Mean (95% CI) [13]: −2.80 % | HSS7 % Change from baseline LS Mean (SE) [13]: −31.95 (5.91) % | HSS7 Change difference for rilzabrutinib vs.placebo LS Mean (95% CI) [13]: −0.33 (−2.64, 1.97) | HSS7 Change from baseline LS Mean (SE) [13]: −4.97 (0.86) | HSS7 Postbaseline Mean (SD) [13]: 9.59 (5.07) | HSS7 % Change difference for rilzabrutinib vs.placebo LS Mean (95% CI) [14]: −0.56 % | HSS7 % Change from baseline LS Mean (SE) [14]: −31.12 (6.01) % | HSS7 Postbaseline Mean (SD) [14]: 9.63 (5.13) | HSS7 Postbaseline Mean (SD) (400 mg QPM, Week 5, Omalizumab-Naïve Population with Outlier Removed from Analysis): 9.63 (5.13) | HSS7 % Change difference for rilzabrutinib vs.placebo LS Mean (95% CI) [15]: −7.12 % | HSS7 % Change from baseline LS Mean (SE) [15]: −31.19 (6.73) % | HSS7 Change difference for rilzabrutinib vs.placebo LS Mean (95% CI) [15]: −0.50 (−3.00, 2.00) | HSS7 Change from baseline LS Mean (SE) [15]: −4.76 (0.93) | HSS7 Postbaseline Mean (SD) [15]: 9.89 (5.69) | HSS7 % Change difference for rilzabrutinib vs.placebo LS Mean (95% CI) [16]: −6.27 % | HSS7 % Change from baseline LS Mean (SE) [16]: −30.30 (6.90) % | HSS7 Postbaseline Mean (SD) [16]: 9.94 (5.76) | HSS7 Postbaseline Mean (SD) (400 mg QPM, Week 6, Omalizumab-Naïve Population with Outlier Removed from Analysis): 9.94 (5.76) | HSS7 % Change difference for rilzabrutinib vs.placebo LS Mean (95% CI) [17]: −5.92 % | HSS7 % Change from baseline LS Mean (SE) [17]: −29.88 (6.15) % | HSS7 Change difference for rilzabrutinib vs.placebo LS Mean (95% CI) [17]: −0.53 (−2.87, 1.81) | HSS7 Change from baseline LS Mean (SE) [17]: −4.61 (0.88) | HSS7 Postbaseline Mean (SD) [17]: 10.38 (5.19) | HSS7 % Change difference for rilzabrutinib vs.placebo LS Mean (95% CI) [18]: −3.82 % | HSS7 % Change from baseline LS Mean (SE) [18]: −29.51 (6.35) % | HSS7 Postbaseline Mean (SD) [18]: 10.43 (5.27) | HSS7 Postbaseline Mean (SD) (400 mg QPM, Week 7, Omalizumab-Naïve Population with Outlier Removed from Analysis): 10.43 (5.27) | HSS7 % Change difference for rilzabrutinib vs.placebo LS Mean (95% CI) [19]: −1.88 % | HSS7 % Change from baseline LS Mean (SE) [19]: −30.95 (6.43) % | HSS7 Change difference for rilzabrutinib vs.placebo LS Mean (95% CI) [19]: 0.11 (−2.37, 2.59) | HSS7 Change from baseline LS Mean (SE) [19]: −4.64 (0.93) | HSS7 Postbaseline Mean (SD) [19]: 10.43 (5.63) | HSS7 % Change difference for rilzabrutinib vs.placebo LS Mean (95% CI) [20]: −2.41 % | HSS7 % Change from baseline LS Mean (SE) [20]: −30.42 (6.75) % | HSS7 % Change difference for rilzabrutinib vs.placebo LS Mean (95% CI) [21]: −10.31 % | HSS7 % Change from baseline LS Mean (SE) [21]: −34.23 (6.69) % | HSS7 Change difference for rilzabrutinib vs.placebo LS Mean (95% CI) [21]: −0.94 (−3.47, 1.59) | HSS7 Change from baseline LS Mean (SE) [21]: −5.06 (0.95) | HSS7 Postbaseline Mean (SD) [21]: 9.77 (5.51) | HSS7 Postbaseline Mean (SD) (400 mg QPM, Week 9, Omalizumab-Naïve Population): 9.82 (5.59) | HSS7 Postbaseline Mean (SD) (400 mg QPM, Week 9, Omalizumab-Naïve Population with Outlier Removed from Analysis): 9.82 (5.59)
